ChEMBL document CHEMBL1134937, “Indoline and piperazine containing derivatives as a novel class of mixed D(2)/D(4) receptor antagonists. Part 2: asymmetric synthesis and biological evaluation” (Bioorg Med Chem Lett, 2002)

Tests used:
D(4) dopamine receptor = biological target: T1, D(4) dopamine receptor (Homo sapiens, UniProt P21917)
T1 sequence (P21917 whole entry): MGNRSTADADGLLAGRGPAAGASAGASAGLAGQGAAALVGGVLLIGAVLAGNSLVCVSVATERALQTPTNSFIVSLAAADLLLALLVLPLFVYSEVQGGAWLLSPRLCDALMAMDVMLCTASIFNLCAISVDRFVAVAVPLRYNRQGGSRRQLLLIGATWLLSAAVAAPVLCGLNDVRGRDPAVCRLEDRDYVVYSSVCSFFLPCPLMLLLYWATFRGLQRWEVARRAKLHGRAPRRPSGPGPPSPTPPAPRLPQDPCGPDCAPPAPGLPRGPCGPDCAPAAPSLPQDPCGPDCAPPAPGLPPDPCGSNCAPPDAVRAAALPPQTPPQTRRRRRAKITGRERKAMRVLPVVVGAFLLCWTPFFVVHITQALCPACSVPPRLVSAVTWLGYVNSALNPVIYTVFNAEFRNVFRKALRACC
Description: Binding affinity towards Dopamine type 4 receptor was determined by competitive displacement assays using [3H]-YM 09151 as the competitive ligand

[1] = biological target: T2, Adrenergic receptor alpha-1 (Rattus norvegicus, UniProt P15823+P23944+P43140); test: Binding affinity towards Alpha-1 adrenergic receptor was determined by competitive displacement assays using rat brain homogenate with [3H]prazosin as the competitive ligand; format: tissue-based
T2 sequence (P15823 whole entry): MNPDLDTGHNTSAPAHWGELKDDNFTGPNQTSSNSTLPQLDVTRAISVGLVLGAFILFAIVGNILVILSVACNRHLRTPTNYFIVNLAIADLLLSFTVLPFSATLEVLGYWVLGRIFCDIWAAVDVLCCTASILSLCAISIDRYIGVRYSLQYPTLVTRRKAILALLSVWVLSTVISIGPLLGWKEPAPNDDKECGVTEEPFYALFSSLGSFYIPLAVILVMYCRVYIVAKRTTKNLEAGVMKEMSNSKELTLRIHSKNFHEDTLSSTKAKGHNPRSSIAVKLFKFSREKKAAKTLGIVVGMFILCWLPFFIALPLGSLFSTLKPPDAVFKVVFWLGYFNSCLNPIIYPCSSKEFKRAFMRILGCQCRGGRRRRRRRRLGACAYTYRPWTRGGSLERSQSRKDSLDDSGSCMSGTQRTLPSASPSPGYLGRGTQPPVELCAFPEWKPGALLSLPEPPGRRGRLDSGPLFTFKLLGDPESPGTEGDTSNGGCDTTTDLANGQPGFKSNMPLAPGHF
T2 sequence (P23944 whole entry): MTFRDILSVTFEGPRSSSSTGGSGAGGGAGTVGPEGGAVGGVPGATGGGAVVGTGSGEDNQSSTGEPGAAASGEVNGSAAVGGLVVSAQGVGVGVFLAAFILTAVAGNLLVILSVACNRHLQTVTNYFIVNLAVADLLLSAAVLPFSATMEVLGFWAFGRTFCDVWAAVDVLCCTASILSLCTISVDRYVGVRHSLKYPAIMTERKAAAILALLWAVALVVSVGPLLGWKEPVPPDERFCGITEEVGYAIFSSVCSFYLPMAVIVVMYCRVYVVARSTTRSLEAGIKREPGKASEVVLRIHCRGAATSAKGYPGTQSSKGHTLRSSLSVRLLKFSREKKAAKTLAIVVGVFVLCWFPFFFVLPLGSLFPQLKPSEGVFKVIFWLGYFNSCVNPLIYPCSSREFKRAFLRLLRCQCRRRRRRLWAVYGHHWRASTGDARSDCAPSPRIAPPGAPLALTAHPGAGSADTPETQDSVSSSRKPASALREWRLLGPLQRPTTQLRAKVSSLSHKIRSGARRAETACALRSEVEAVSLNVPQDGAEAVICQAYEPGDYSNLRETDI
T2 sequence (P43140 whole entry): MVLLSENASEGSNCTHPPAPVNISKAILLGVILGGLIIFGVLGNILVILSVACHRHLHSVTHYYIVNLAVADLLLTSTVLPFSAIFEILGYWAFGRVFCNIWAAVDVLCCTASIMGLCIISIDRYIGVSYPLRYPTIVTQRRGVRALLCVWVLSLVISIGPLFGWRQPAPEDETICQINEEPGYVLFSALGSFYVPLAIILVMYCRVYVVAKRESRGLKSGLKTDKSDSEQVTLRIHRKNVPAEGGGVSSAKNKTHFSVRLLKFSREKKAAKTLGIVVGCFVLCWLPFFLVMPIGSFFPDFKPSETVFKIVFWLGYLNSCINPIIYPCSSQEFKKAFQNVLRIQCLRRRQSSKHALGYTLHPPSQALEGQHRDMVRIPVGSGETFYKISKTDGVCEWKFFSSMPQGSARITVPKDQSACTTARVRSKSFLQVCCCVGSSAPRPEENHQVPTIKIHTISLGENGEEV

Rattus norvegicus [2] = test: Minimum effective dose required for significant dose dependent reduction of amphetamine-induced locomotor activity in male Sprague-Dawley rats on subcutaneous administration (30 min prior to receiving amphetamine 0.5 mg/kg); format: functional; settings: sc, read-out: MED
Rattus norvegicus [3] = organism: Rattus norvegicus; test: Minimum effective dose required in the catalepsy experiment in rats; showed no significant effect at this dose; format: functional; settings: read-out: MED
Rattus norvegicus [4] = organism: Rattus norvegicus; test: Minimum effective dose required in the catalepsy experiment in rats; format: functional; settings: read-out: MED

| Structure (SMILES) | Ki (D(4) dopamine receptor) [nM] | Ki [1] [nM] | minimal effective dose (Rattus norvegicus [2]) [mg/kg] | minimal effective dose (Rattus norvegicus [3]) [mg/kg] | minimal effective dose (Rattus norvegicus [4]) [mg/kg] |
| --- | --- | --- | --- | --- | --- |
| COc1ccc(Cl)cc1CN1CCN(CC(=O)N2c3ccccc3C[C@H]2C)CC1 | 5 | 980 | – | – | – |
| C[C@@H]1Cc2ccccc2N1C(=O)CN1CCN(Cc2ccc3c(c2)OCO3)CC1 | 3 | 1130 | – | – | – |
| C[C@@H]1Cc2ccccc2N1C(=O)CN1CCN(Cc2ccccc2F)CC1 | 27 | > 10000 | – | – | – |
| C=C[C@@H]1Cc2ccccc2N1C(=O)CN1CCN(Cc2ccc(Cl)cc2)CC1 | – | 2180 | – | – | – |
| COC(=O)[C@@H]1Cc2ccccc2N1C(=O)CN1CCN(Cc2ccc(Cl)cc2)CC1 | 5 | > 1000 | – | – | – |
| C[C@@H]1Cc2ccccc2N1C(=O)CN1CCN(Cc2ccc(F)c(F)c2Cl)CC1 | 12 | > 1000 | – | – | – |
| Cc1ccc(CN2CCN(CC(=O)N3c4ccccc4C[C@H]3C)CC2)cc1 | – | – | > 4 | – | – |
| CN1CCN(C2=Nc3cc(Cl)ccc3Nc3ccccc32)CC1 [CLOZAPINE] | – | – | 1 | > 40 | – |
| CC[C@@H]1Cc2ccccc2N1C(=O)CN1CCN(Cc2ccc(C)cc2)CC1 | 3 | 1330 | – | – | – |
| Cc1ccc(CN2CCN(CC(=O)N3c4ccccc4C[C@H]3C)CC2)cc1F | 2 | 807 | – | – | – |
| COC(=O)[C@@H]1Cc2ccccc2N1C(=O)CN1CCN(Cc2ccc(C)cc2)CC1 | 8 | 100 | – | – | – |
| CC(C)c1ccc(Cl)cc1CN1CCN(CC(=O)N2c3ccccc3C[C@H]2C)CC1 | 10 | – | – | – | – |
| C[C@@H]1Cc2ccccc2N1C(=O)CN1CCN(Cc2cccc(F)c2)CC1 | 6 | – | – | – | – |
| COc1cc(Cl)ccc1CN1CCN(CC(=O)N2c3ccccc3C[C@H]2C)CC1 | 3 | 1060 | > 4 | – | – |
| C[C@@H]1Cc2ccccc2N1C(=O)CN1CCN(Cc2ccc(Cl)cc2)CC1 | – | – | > 8 | – | – |
| O=C(CCCN1CCC(O)(c2ccc(Cl)cc2)CC1)c1ccc(F)cc1 [HALOPERIDOL] | – | – | 0.06 | – | 0.5 |
| CCOc1ccc(Cl)cc1CN1CCN(CC(=O)N2c3ccccc3C[C@H]2C)CC1 | 11 | 1090 | – | – | – |
| C[C@@H]1Cc2ccccc2N1C(=O)CN1CCN(Cc2cc(F)c(Cl)cc2F)CC1 | 6 | > 10000 | – | – | – |
| COc1ccc(OC)c(CN2CCN(CC(=O)N3c4ccccc4C[C@H]3C)CC2)c1 | 29 | 1660 | – | – | – |
| O=C(NCc1ccccc1)[C@@H]1Cc2ccccc2N1C(=O)CN1CCN(Cc2ccc(Cl)cc2)CC1 | > 1000 | – | – | – | – |
| O=C(O)[C@@H]1Cc2ccccc2N1C(=O)CN1CCN(Cc2ccc(Cl)cc2)CC1 | 1760 | 453 | – | – | – |
